From ChEMBL document CHEMBL5500389, “Discovery of the Selective and Orally Available Galectin-1 Inhibitor GB1908 as a Potential Treatment for Lung Cancer” (J Med Chem, 2024) come the findings set out here.

Calls of active or inactive are those of the source. The rule behind the calls is not given here.

Series [1] in a line: Apparent permeability across apical to basal side in human Caco-2 cells at 10 uM incubated for 90 mins by LC-MS/MS analysis.
The nature of series [2]: Efflux ratio of apparent permeability across apical to basal side over basal to apical side in human Caco-2 cells at 10 uM incubated for 90 mins by LC-MS/MS analysis.
Series [3] concerns the target T1, Galectin-1 (Homo sapiens, UniProt P09382). Description: Binding affinity to human galectin-1 assessed as dissociation constant by fluorescein probe based fluorescence polarization assay.
Series [4] is described as follows: Apparent permeability across basal to apical side in human Caco-2 cells at 10 uM incubated for 90 mins by LC-MS/MS analysis.
Series [5] in a line: physchem. The settings on record: octanol/potassium phosphate buffer, pH 7.4.
The target in series [6] is T2, Galectin-1 (Mus musculus, UniProt P16045). Description: Binding affinity to mouse galectin-1 assessed as dissociation constant by fluorescein probe based fluorescence polarization assay.
T2 sequence (P16045 whole entry): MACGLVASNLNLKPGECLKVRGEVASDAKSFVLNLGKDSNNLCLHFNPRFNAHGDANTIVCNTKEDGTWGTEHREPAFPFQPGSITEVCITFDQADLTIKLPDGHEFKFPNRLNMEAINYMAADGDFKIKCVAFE
The nature of series [7]: Stability in human hepatocytes assessed as hepatic intrinsic clearance at 2 uM measured per million cells for 15 to 120 mins by LC-MS/MS analysis. Type of series: ADME, cell-based, Hepatocyte. The settings on record: time 15-120 min, read-out: CLH.
Series [8] can be described thus: Stability in mouse hepatocytes assessed as hepatic intrinsic clearance at 2 uM measured per million cells for 15 to 120 mins by LC-MS/MS analysis. The series is classed as ADME, cell-based, Hepatocyte. The conditions noted are these: time 15-120 min, read-out: CLH.
Series [9] in a line: Unbound fraction in human plasma at 1 uM incubated for 5 hrs by equilibrium dialysis method. Type of series: ADME, cell-free.
The nature of series [10]: Unbound fraction in mouse plasma at 1 uM incubated for 5 hrs by equilibrium dialysis method. Type of series: ADME, cell-free.
Series [11] has as its target T3, Galectin-3 (Homo sapiens, UniProt P17931). Description: Inhibition of human galectin-3 by competitive fluorescence polarization assay.
The target in series [12] is T4, Galectin-4 (Homo sapiens, UniProt P56470).
T4 sequence (P56470 whole entry): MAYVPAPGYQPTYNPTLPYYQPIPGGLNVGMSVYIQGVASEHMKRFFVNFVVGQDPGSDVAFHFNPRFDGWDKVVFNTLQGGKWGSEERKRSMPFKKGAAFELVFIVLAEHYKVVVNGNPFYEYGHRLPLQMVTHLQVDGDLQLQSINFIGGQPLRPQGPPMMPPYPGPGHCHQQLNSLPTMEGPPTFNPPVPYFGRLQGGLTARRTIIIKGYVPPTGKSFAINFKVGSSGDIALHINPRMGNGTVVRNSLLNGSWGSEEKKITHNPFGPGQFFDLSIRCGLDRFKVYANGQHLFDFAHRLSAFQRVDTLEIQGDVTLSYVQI
In words: Inhibition of N-terminal human galectin-4 by competitive fluorescence polarization assay.

Series [13] concerns the target T4, Galectin-4. Description: Inhibition of C-terminal human galectin-4 by competitive fluorescence polarization assay.
Series [14] concerns the target Galectin-7 (Homo sapiens, UniProt P47929). Description: Inhibition of human galectin-7 by competitive fluorescence polarization assay.
The target of series [15] is T5, Galectin-8 (Homo sapiens, UniProt O00214).
T5 sequence (O00214 whole entry): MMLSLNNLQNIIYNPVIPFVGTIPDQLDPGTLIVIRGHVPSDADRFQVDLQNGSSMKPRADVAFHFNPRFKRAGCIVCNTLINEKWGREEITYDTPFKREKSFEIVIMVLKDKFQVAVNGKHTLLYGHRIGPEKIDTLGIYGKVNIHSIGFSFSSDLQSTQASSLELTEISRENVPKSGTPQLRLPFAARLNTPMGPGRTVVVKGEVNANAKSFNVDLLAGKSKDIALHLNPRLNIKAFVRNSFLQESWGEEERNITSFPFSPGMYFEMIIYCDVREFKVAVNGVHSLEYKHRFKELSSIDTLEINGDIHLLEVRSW
Description: Inhibition of N-terminal human galectin-8 by competitive fluorescence polarization assay.

For series [16], the target named is T5, Galectin-8. Description: Inhibition of C-terminal human galectin-8 by competitive fluorescence polarization assay.
The target of series [17] is T6, Galectin-9 (Homo sapiens, UniProt O00182). Description: Inhibition of N-terminal human galectin-9 by competitive fluorescence polarization assay.
T6 sequence (O00182 whole entry): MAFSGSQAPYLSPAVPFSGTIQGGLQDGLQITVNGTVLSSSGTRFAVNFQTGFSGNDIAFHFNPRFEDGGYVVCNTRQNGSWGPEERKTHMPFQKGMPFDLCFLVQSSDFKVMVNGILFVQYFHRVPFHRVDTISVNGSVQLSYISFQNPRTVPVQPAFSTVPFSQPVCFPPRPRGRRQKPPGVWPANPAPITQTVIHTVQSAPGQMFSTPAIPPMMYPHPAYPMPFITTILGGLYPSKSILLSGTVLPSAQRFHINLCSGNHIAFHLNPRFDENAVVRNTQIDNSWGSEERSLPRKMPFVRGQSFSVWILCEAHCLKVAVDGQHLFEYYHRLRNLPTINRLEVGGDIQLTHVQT
The target in series [18] is T6, Galectin-9. Description: Inhibition of C-terminal human galectin-9 by competitive fluorescence polarization assay.
Series [19] addresses T1, Galectin-1. Description: Binding affinity to CM3 chip-immobilized full-length human galectin-1 assessed as dissociation constant by SPR analysis.
Series [20] has as its target T3, Galectin-3. In words: Binding affinity to CM3 chip-immobilized full-length human galectin-3 assessed as dissociation constant by SPR analysis.
Series [21] concerns the target T2, Galectin-1. Description: Binding affinity to CM3 chip-immobilized full-length mouse galectin-1 assessed as dissociation constant by SPR analysis.
Series [22] has as its target T7, Galectin-3 (Mus musculus, UniProt P16110). Description: Binding affinity to CM3 chip-immobilized full-length mouse galectin-3 assessed as dissociation constant by SPR analysis.
Series [23] concerns the target T7, Galectin-3. Description: Binding affinity to mouse galectin-3 assessed as dissociation constant by fluorescein probe based fluorescence polarization assay.
The test system of series [24] is A549. Description: Cytotoxicity against human A549 cells assessed as reduction in cell viability at >90 uM by MTT assay relative to control. The series is classed as functional.
Series [25] has as its system Jurkat. Description: Inhibition of apoptosis in galectin-1-induced human Jurkat cells measured after 16 hrs by caspase-3/7 green fluorescence based analysis.
The test system of series [26] is Jurkat. In words: Inhibition of apoptosis in galectin-3-induced human Jurkat cells measured after 16 hrs by caspase-3/7 green fluorescence based analysis.
A short description of series [27]: Clearance in C57BL/6 mouse at 1 mg/kg, iv measured for 24 hrs by HPLC analysis. The series is classed as ADME, organism-based. The conditions noted are these: in vivo.
The nature of series [28]: Volume of distribution at steady state in C57BL/6 mouse at 1 mg/kg, iv measured for 24 hrs by HPLC analysis. Type of series: ADME, organism-based. The conditions noted are these: in vivo, read-out: Vdss.
A short description of series [29]: Tmax in C57BL/6 mouse at 30 mg/kg, po measured for 24 hrs by HPLC analysis. The settings on record: in vivo. The series is classed as ADME, organism-based.
Series [30] in a line: Cmax in C57BL/6 mouse at 30 mg/kg, po measured for 24 hrs by HPLC analysis. The series is classed as ADME, organism-based. The settings on record: in vivo.
Series [31] is described as follows: AUC (infinity) in C57BL/6 mouse at 30 mg/kg, po measured for 24 hrs by HPLC analysis. Type of series: ADME, organism-based. The settings on record: in vivo.
The nature of series [32]: Oral bioavailability in C57BL/6 mouse at 30 mg/kg measured for 24 hrs by HPLC analysis. The series is classed as ADME, organism-based. The settings on record: in vivo.
Series [33] has as its system Lewis lung carcinoma. Description: Antitumor activity against mouse LL2 cells allografted in syngeneic mouse C57BL/6N assessed as inhibition of tumor growth at 30 mg/kg, po bid administered via gavage measured for 3 to 21 days. Type of series: functional, organism-based. The settings on record: time 3-21 day.
Series [34] has as its system Lewis lung carcinoma. In words: Antitumor activity against mouse LL2 cells allografted in syngeneic mouse C57BL/6N assessed as reduction in tumor volume at 30 mg/kg, po bid administered via gavage measured after 10 days. The series is classed as functional, organism-based. The settings on record: time 10.0 day.

T1 sequence (P09382 whole entry): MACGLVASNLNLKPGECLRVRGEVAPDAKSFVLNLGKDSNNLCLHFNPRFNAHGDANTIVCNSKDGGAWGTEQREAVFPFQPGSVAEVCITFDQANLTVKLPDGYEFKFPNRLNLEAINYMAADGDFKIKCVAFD
T7 sequence (P16110 whole entry): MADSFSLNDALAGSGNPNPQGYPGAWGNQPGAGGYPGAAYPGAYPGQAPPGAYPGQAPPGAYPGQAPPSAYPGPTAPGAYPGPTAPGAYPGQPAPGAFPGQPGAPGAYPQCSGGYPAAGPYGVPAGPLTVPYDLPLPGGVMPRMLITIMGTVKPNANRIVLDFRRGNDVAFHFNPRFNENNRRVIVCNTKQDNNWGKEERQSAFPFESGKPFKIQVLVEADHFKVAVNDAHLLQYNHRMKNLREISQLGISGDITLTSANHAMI
T3 sequence (P17931 whole entry): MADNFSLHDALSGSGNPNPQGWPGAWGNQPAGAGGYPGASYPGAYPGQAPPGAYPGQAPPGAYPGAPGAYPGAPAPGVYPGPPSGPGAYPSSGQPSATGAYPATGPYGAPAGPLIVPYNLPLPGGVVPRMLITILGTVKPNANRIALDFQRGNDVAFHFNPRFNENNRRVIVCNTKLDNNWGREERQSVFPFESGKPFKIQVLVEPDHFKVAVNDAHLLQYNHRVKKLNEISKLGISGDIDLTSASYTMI
Sequence of Galectin-7 (P47929 whole entry): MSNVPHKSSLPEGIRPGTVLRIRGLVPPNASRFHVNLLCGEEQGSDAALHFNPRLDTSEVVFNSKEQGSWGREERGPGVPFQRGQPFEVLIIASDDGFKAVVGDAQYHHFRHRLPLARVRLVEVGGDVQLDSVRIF

`OC[C@H]1O[C@H](Sc2cc(Cl)c(F)c(Cl)c2)[C@H](O)[C@@H](n2cc(-c3cscn3)nn2)[C@H]1O`: in series [1], the Papp A→B at 1.5 h, 10 µM was found to be 8.8 ×10⁻⁶ cm/s. The efflux ratio at 1.5 h, 10 µM in [2] stood at 3.4.

For `CN(C)c1nc(-c2cn([C@@H]3[C@@H](O)[C@@H](Sc4cc(Cl)c(F)c(Cl)c4)O[C@H](CO)[C@@H]3O)nn2)cs1`, the Kd in series [3] is 3430 nM. Besides, the Papp A→B at 1.5 h, 10 µM in series [1] was determined as 0.6 ×10⁻⁶ cm/s. Also, in series [4], the Papp B→A at 1.5 h, 10 µM stood at 52 ×10⁻⁶ cm/s. Also, the efflux ratio at 1.5 h, 10 µM in series [2] turned out to be 87. In [5], the logD at 1 h worked out at 3.8.

For `CO[C@@H]1[C@@H](n2cc(-c3csc(O)n3)nn2)[C@@H](O)[C@@H](CO)O[C@@H]1Sc1ccc(Cl)c(Cl)c1`, the Papp A→B at 1.5 h, 10 µM in [1] was 4 ×10⁻⁶ cm/s. Moreover, the apparent permeability from basolateral to apical (Papp B→A) at 1.5 h, 10 µM in series [4] was 48 ×10⁻⁶ cm/s. Moreover, the Kd in [6] was found to be 72 nM; in series [11], 6000 nM; in series [12] it was 15000 nM; in series [13] it was 460 nM; in series [14] it was 92700 nM; in series [15], 80600 nM. Moreover, the Kd in series [16] is 92400 nM; in [17], 18600 nM; in series [18], 17500 nM; in series [19] it was 80 nM; in series [20], 20500 nM; in [21], 90 nM. Also, the Kd was determined as 8200 nM in series [22] and 4200 nM in series [23]. Moreover, the hepatocyte CLint at 2 µM in series [7] and in [8] was below 1.5 µL/min/1e6 cells in each case. In addition, the figures for the fraction unbound at 5 h, 1 µM in series [9] and in [10] were 0.005 and 0.007, respectively. Further, the Activity in series [24] is 48%. Besides, the IC50 is 850 nM in [25] and above 8000 nM in [26]. The compound also came in with a clearance in series [27] of 3.7 mL/min/kg. Further, the Vd in series [28] came out at 0.4 L/kg. Besides, the time to peak (Tmax) in series [29] came to 2 h. The compound further showed a Cmax in series [30] of 19500 ng/mL. Besides, the total exposure AUC(0-inf) in [31] was found to be 148 µg·h/mL. For the same compound, the bioavailability in [32] was above 99.9%. Also, the inhibition entry in series [33] was “Active”. The outcome in series [34] was Active. This compound also returned a logD at 1 h in series [5] of 3.2.

Consider `OC[C@H]1O[C@H](Sc2ccc(Cl)c(Cl)c2)[C@H](O)[C@@H](n2cc(-c3csc(O)n3)nn2)[C@H]1O`, for which the Kd in series [3] is 337 nM. In [1], the Papp A→B at 1.5 h, 10 µM is below 1.5 ×10⁻⁶ cm/s. For the same compound, the Papp B→A at 1.5 h, 10 µM in series [4] came to 35 ×10⁻⁶ cm/s. In addition, the efflux ratio at 1.5 h, 10 µM in series [2] was above 23.

As for `CO[C@@H]1[C@@H](n2cc(-c3nccs3)nn2)[C@@H](O)[C@@H](CO)O[C@@H]1Sc1cc(Cl)c(F)c(Cl)c1`, the Kd in series [3] was determined as 145 nM; in [6] it was 160 nM. Besides, in series [1], the Papp A→B at 1.5 h, 10 µM came out at 20 ×10⁻⁶ cm/s. The Papp B→A at 1.5 h, 10 µM in series [4] worked out at 28 ×10⁻⁶ cm/s. Further, the efflux ratio at 1.5 h, 10 µM in [2] amounted to 1.4. Moreover, the hepatocyte CLint at 2 µM in series [7] is 4.4 µL/min/1e6 cells; in series [8] it was below 1.5 µL/min/1e6 cells. This compound returned a logD at 1 h in series [5] of 3.7.

As to `CNc1nc(-c2cn([C@@H]3[C@@H](O)[C@@H](Sc4cc(Cl)c(F)c(Cl)c4)O[C@H](CO)[C@@H]3O)nn2)cs1`, the Kd in [3] was 1360 nM. Besides, the Papp A→B at 1.5 h, 10 µM in [1] was below 0.24 ×10⁻⁶ cm/s. Further, the apparent permeability from basolateral to apical (Papp B→A) at 1.5 h, 10 µM in [4] was determined as 46 ×10⁻⁶ cm/s. Also, in series [2], the efflux ratio at 1.5 h, 10 µM is above 192. The compound further came in with a logD at 1 h in series [5] of 2.9.

In the case of `CO[C@@H]1[C@@H](n2cc(-c3csc(N)n3)nn2)[C@@H](O)[C@@H](CO)O[C@@H]1Sc1ccc(Cl)c(Cl)c1`, the results for the Kd in [3] and in series [6] were 112 nM and 99 nM, respectively. The Papp A→B at 1.5 h, 10 µM in [1] was 3.8 ×10⁻⁶ cm/s. In [4], the Papp B→A at 1.5 h, 10 µM was 38 ×10⁻⁶ cm/s. The efflux ratio at 1.5 h, 10 µM in series [2] came out at 10. In addition, the hepatocyte CLint at 2 µM in [7] and in series [8] was below 1.5 µL/min/1e6 cells throughout. In addition, in series [9], the fraction unbound at 5 h, 1 µM is 0.032. In series [5], this compound showed a log distribution coefficient (logD) at 1 h of 2.9.

Take `COc1nc(-c2cn([C@@H]3[C@@H](O)[C@@H](Sc4cc(Cl)c(F)c(Cl)c4)O[C@H](CO)[C@@H]3O)nn2)cs1`: in [3], the Kd stood at 1580 nM. For the same compound, the Papp A→B at 1.5 h, 10 µM in [1] is 12 ×10⁻⁶ cm/s. For the same compound, in series [4], the Papp B→A at 1.5 h, 10 µM was 61 ×10⁻⁶ cm/s. The efflux ratio at 1.5 h, 10 µM in [2] was found to be 5.
